Results reported in ChEMBL document CHEMBL4325853, “Design, synthesis and antibacterial evaluation of 2,4-disubstituted-6-thiophenyl-pyrimidines” (Eur J Med Chem, 2019).
Values after ≈ are worked out from the molar mass of the structure shown.

Assays:
Type in all cases: functional
Staphylococcus aureus [1] = assay: Antibacterial activity against methicillin-resistant Staphylococcus aureus isolate 4127 after 18 hrs by broth microdilution method; conditions: isolate 4127, 18 h
Staphylococcus aureus [2] = assay: Antibacterial activity against methicillin-resistant Staphylococcus aureus isolate 7247 after 18 hrs by broth microdilution method; conditions: isolate 7247, 18 h
Staphylococcus aureus [3] = assay: Bactericidal activity against methicillin-resistant Staphylococcus aureus ATCC BAA41 after 18 hrs by broth microdilution method; conditions: ATCC BAA41, 18 h
Staphylococcus aureus [4] = assay: Antibacterial activity against methicillin-resistant Staphylococcus aureus isolate 7536 after 18 hrs by broth microdilution method; conditions: isolate 7536, 18 h
Enterococcus faecalis [5] = assay: Ratio of MBC to MIC for vancomycin-resistant Enterococcus faecalis ATCC 700221
Staphylococcus aureus [6] = assay: Antibacterial activity against methicillin-resistant Staphylococcus aureus isolate 1708 after 18 hrs by broth microdilution method; conditions: isolate 1708, 18 h
Staphylococcus aureus [7] = assay: Potency index, ratio of methicillin MIC to test compound MIC for methicillin-resistant Staphylococcus aureus ATCC 33592
Staphylococcus aureus [8] = assay: Antibacterial activity against methicillin-resistant Staphylococcus aureus isolate 4548 after 18 hrs by broth microdilution method; conditions: isolate 4548, 18 h
Staphylococcus aureus [9] = assay: Antibacterial activity against methicillin-resistant Staphylococcus aureus isolate 8162 after 18 hrs by broth microdilution method; conditions: isolate 8162, 18 h
Staphylococcus aureus [10] = assay: Potency index, ratio of methicillin MIC to test compound MIC for methicillin-resistant Staphylococcus aureus ATCC BAA41
Staphylococcus aureus [11] = assay: Antibacterial activity against methicillin-resistant Staphylococcus aureus isolate 5035 after 18 hrs by broth microdilution method; conditions: isolate 5035, 18 h
Staphylococcus aureus [12] = assay: Antibacterial activity against methicillin-resistant Staphylococcus aureus isolate 7682 after 18 hrs by broth microdilution method; conditions: isolate 7682, 18 h
Enterococcus faecium [13] = assay: Potency index, ratio of berberine MIC to test compound MIC for Enterococcus faecium ATCC 49624
Staphylococcus aureus [14] = assay: Antibacterial activity against methicillin-resistant Staphylococcus aureus isolate 3096 after 18 hrs by broth microdilution method; conditions: isolate 3096, 18 h
Staphylococcus aureus [15] = assay: Antibacterial activity against methicillin-resistant Staphylococcus aureus ATCC BAA41 after 18 hrs by broth microdilution method; conditions: ATCC BAA41, 18 h
Staphylococcus aureus [16] = assay: Antibacterial activity against methicillin-resistant Staphylococcus aureus isolate 7972 after 18 hrs by broth microdilution method; conditions: isolate 7972, 18 h
Staphylococcus aureus [17] = assay: Antibacterial activity against methicillin-resistant Staphylococcus aureus isolate 6334 after 18 hrs by broth microdilution method; conditions: isolate 6334, 18 h
Staphylococcus aureus [18] = assay: Potency index, ratio of methicillin MIC to test compound MIC for methicillin-resistant Staphylococcus aureus ATCC 43300
Staphylococcus aureus [19] = assay: Antibacterial activity against methicillin-resistant Staphylococcus aureus isolate 3170 after 18 hrs by broth microdilution method; conditions: isolate 3170, 18 h
Staphylococcus aureus [20] = assay: Antibacterial activity against methicillin-resistant Staphylococcus aureus isolate 8179 after 18 hrs by broth microdilution method; conditions: isolate 8179, 18 h
Staphylococcus aureus [21] = assay: Antibacterial activity against methicillin-resistant Staphylococcus aureus isolate 7844 after 18 hrs by broth microdilution method; conditions: isolate 7844, 18 h
Staphylococcus aureus [22] = assay: Antibacterial activity against methicillin-resistant Staphylococcus aureus isolate 1610 after 18 hrs by broth microdilution method; conditions: isolate 1610, 18 h
Staphylococcus aureus [23] = assay: Antibacterial activity against methicillin-resistant Staphylococcus aureus isolate 7664 after 18 hrs by broth microdilution method; conditions: isolate 7664, 18 h
Staphylococcus aureus [24] = assay: Antibacterial activity against methicillin-resistant Staphylococcus aureus isolate 5239 after 18 hrs by broth microdilution method; conditions: isolate 5239, 18 h
Escherichia coli = assay: Antibacterial activity against Escherichia coli ATCC 25922 after 18 hrs by broth microdilution method; conditions: ATCC 25922, 18 h
Staphylococcus aureus [25] = assay: Antibacterial activity against methicillin-resistant Staphylococcus aureus isolate 1947 after 18 hrs by broth microdilution method; conditions: isolate 1947, 18 h
Staphylococcus aureus [26] = assay: Antibacterial activity against methicillin-resistant Staphylococcus aureus isolate 7917 after 18 hrs by broth microdilution method; conditions: isolate 7917, 18 h
Staphylococcus aureus [27] = assay: Antibacterial activity against methicillin-resistant Staphylococcus aureus isolate 5395 after 18 hrs by broth microdilution method; conditions: isolate 5395, 18 h
Enterococcus faecalis [28] = assay: Potency index, ratio of berberine MIC to test compound MIC for Enterococcus faecalis ATCC 29212
Staphylococcus aureus [29] = assay: Antibacterial activity against methicillin-resistant Staphylococcus aureus isolate 4023 after 18 hrs by broth microdilution method; conditions: isolate 4023, 18 h
Staphylococcus aureus [30] = assay: Antibacterial activity against methicillin-resistant Staphylococcus aureus isolate 7813 after 18 hrs by broth microdilution method; conditions: isolate 7813, 18 h
[31] = system: Staphylococcus epidermidis; assay: Potency index, ratio of berberine MIC to test compound MIC for Staphylococcus epidermidis ATCC 12228
Staphylococcus aureus [32] = assay: Antibacterial activity against methicillin-resistant Staphylococcus aureus isolate 7947 after 18 hrs by broth microdilution method; conditions: isolate 7947, 18 h
Staphylococcus aureus [33] = assay: Ratio of MBC to MIC for methicillin-resistant Staphylococcus aureus ATCC BAA41
Staphylococcus aureus [34] = assay: Antibacterial activity against methicillin-resistant Staphylococcus aureus isolate 7587 after 18 hrs by broth microdilution method; conditions: isolate 7587, 18 h
Staphylococcus aureus [35] = assay: Antibacterial activity against methicillin-resistant Staphylococcus aureus isolate 2158 after 18 hrs by broth microdilution method; conditions: isolate 2158, 18 h
Staphylococcus aureus [36] = assay: Antibacterial activity against methicillin-resistant Staphylococcus aureus ATCC BAA1720 after 18 hrs by broth microdilution method; conditions: ATCC BAA1720, 18 h
Staphylococcus aureus [37] = assay: Antibacterial activity against methicillin-resistant Staphylococcus aureus isolate 7864 after 18 hrs by broth microdilution method; conditions: isolate 7864, 18 h
Enterococcus faecalis [38] = assay: Antibacterial activity against vancomycin-resistant Enterococcus faecalis ATCC 700221 after 18 hrs by broth microdilution method; conditions: ATCC 700221, 18 h
Staphylococcus aureus [39] = assay: Bactericidal activity against methicillin-resistant Staphylococcus aureus ATCC 43300 after 18 hrs by broth microdilution method; conditions: ATCC 43300, 18 h
Staphylococcus aureus [40] = assay: Antibacterial activity against methicillin-resistant Staphylococcus aureus isolate 1651 after 18 hrs by broth microdilution method; conditions: isolate 1651, 18 h
Enterococcus faecium [41] = assay: Antibacterial activity against Enterococcus faecium ATCC 49624 after 18 hrs by broth microdilution method; conditions: ATCC 49624, 18 h
Staphylococcus aureus [42] = assay: Antibacterial activity against methicillin-resistant Staphylococcus aureus ATCC 43300 after 18 hrs by broth microdilution method; conditions: ATCC 43300, 18 h
Staphylococcus aureus [43] = assay: Antibacterial activity against methicillin-resistant Staphylococcus aureus isolate 8078 after 18 hrs by broth microdilution method; conditions: isolate 8078, 18 h
Staphylococcus aureus [44] = assay: Antibacterial activity against methicillin-resistant Staphylococcus aureus isolate 5426 after 18 hrs by broth microdilution method; conditions: isolate 5426, 18 h
Staphylococcus aureus [45] = assay: Potency index, ratio of berberine MIC to test compound MIC for Staphylococcus aureus ATCC 29213
Enterococcus faecalis [46] = assay: Bactericidal activity against vancomycin-resistant Enterococcus faecalis ATCC 700221 after 18 hrs by broth microdilution method; conditions: ATCC 700221, 18 h

Compound: CC(C)c1ccc(CN2CCCN(CCc3cc(-c4cccs4)nc(-c4ccncc4)n3)CC2)cc1
- MIC90 (Staphylococcus aureus [1]): 2 µg/mL (≈ 4.02 µM)
- MIC90 (Staphylococcus aureus [2]): 2 µg/mL (≈ 4.02 µM)
- MBC (Staphylococcus aureus [3]): 2 µg/mL (≈ 4.02 µM)
- MIC90 (Staphylococcus aureus [4]): 2 µg/mL (≈ 4.02 µM)
- Ratio (Enterococcus faecalis [5]): 2
- MIC90 (Staphylococcus aureus [6]): 2 µg/mL (≈ 4.02 µM)
- Ratio (Staphylococcus aureus [7]): >100
- MIC90 (Staphylococcus aureus [8]): 2 µg/mL (≈ 4.02 µM)
- MIC90 (Staphylococcus aureus [9]): 2 µg/mL (≈ 4.02 µM)
- Ratio (Staphylococcus aureus [10]): >100
- MIC90 (Staphylococcus aureus [11]): 2 µg/mL (≈ 4.02 µM)
- MIC90 (Staphylococcus aureus [12]): 4 µg/mL (≈ 8.04 µM)
- Ratio (Enterococcus faecium [13]): 50 - 100
- MIC90 (Staphylococcus aureus [14]): 2 µg/mL (≈ 4.02 µM)
- MIC90 (Staphylococcus aureus [15]): 2 µg/mL (≈ 4.02 µM)
- MIC90 (Staphylococcus aureus [16]): 2 µg/mL (≈ 4.02 µM)
- MIC90 (Staphylococcus aureus [17]): 2 µg/mL (≈ 4.02 µM)
- Ratio (Staphylococcus aureus [18]): >100
- MIC90 (Staphylococcus aureus [19]): 2 µg/mL (≈ 4.02 µM)
- MIC90 (Staphylococcus aureus [20]): 2 µg/mL (≈ 4.02 µM)
- MIC90 (Staphylococcus aureus [21]): 2 µg/mL (≈ 4.02 µM)
- MIC90 (Staphylococcus aureus [22]): 4 µg/mL (≈ 8.04 µM)
- MIC90 (Staphylococcus aureus [23]): 2 µg/mL (≈ 4.02 µM)
- MIC90 (Staphylococcus aureus [24]): 2 µg/mL (≈ 4.02 µM)
- MIC90 (Escherichia coli): 128 µg/mL (≈ 257 µM)
- MIC90 (Staphylococcus aureus [25]): 2 µg/mL (≈ 4.02 µM)
- MIC90 (Staphylococcus aureus [26]): 2 µg/mL (≈ 4.02 µM)
- MIC90 (Staphylococcus aureus [27]): 2 µg/mL (≈ 4.02 µM)
- Ratio (Enterococcus faecalis [28]): 50 - 100
- MIC90 (Staphylococcus aureus [29]): 2 µg/mL (≈ 4.02 µM)
- MIC90 (Staphylococcus aureus [30]): 2 µg/mL (≈ 4.02 µM)
- Ratio [31]: 50 - 100
- MIC90 (Staphylococcus aureus [32]): 2 µg/mL (≈ 4.02 µM)
- Ratio (Staphylococcus aureus [33]): 1
- MIC90 (Staphylococcus aureus [34]): 2 µg/mL (≈ 4.02 µM)
- MIC90 (Staphylococcus aureus [35]): 2 µg/mL (≈ 4.02 µM)
- MIC90 (Staphylococcus aureus [36]): 2 µg/mL (≈ 4.02 µM)
- MIC90 (Staphylococcus aureus [37]): 2 µg/mL (≈ 4.02 µM)
- MIC90 (Enterococcus faecalis [38]): 2 µg/mL (≈ 4.02 µM)
- MBC (Staphylococcus aureus [39]): 4 µg/mL (≈ 8.04 µM)
- MIC90 (Staphylococcus aureus [40]): 2 µg/mL (≈ 4.02 µM)
- MIC90 (Enterococcus faecium [41]): 2 µg/mL (≈ 4.02 µM)
- MIC90 (Staphylococcus aureus [42]): 2 µg/mL (≈ 4.02 µM)
- MIC90 (Staphylococcus aureus [43]): 2 µg/mL (≈ 4.02 µM)
- MIC90 (Staphylococcus aureus [44]): 2 µg/mL (≈ 4.02 µM)
- Ratio (Staphylococcus aureus [45]): 50 - 100
- MBC (Enterococcus faecalis [46]): 4 µg/mL (≈ 8.04 µM)

Compound: COc1cccc(OC)c1C(=O)N[C@@H]1C(=O)N2[C@@H]1SC(C)(C)[C@@H]2C(=O)O [METHICILLIN]
- MIC90 (Staphylococcus aureus [1]): > 64 µg/mL
- MIC90 (Staphylococcus aureus [2]): > 64 µg/mL
- MIC90 (Staphylococcus aureus [4]): > 64 µg/mL
- MIC90 (Staphylococcus aureus [6]): > 64 µg/mL
- MIC90 (Staphylococcus aureus [8]): > 64 µg/mL
- MIC90 (Staphylococcus aureus [9]): > 64 µg/mL
- MIC90 (Staphylococcus aureus [11]): > 64 µg/mL
- MIC90 (Staphylococcus aureus [12]): > 64 µg/mL
- MIC90 (Staphylococcus aureus [14]): > 64 µg/mL
- MIC90 (Staphylococcus aureus [15]): > 192 µg/mL
- MIC90 (Staphylococcus aureus [16]): > 64 µg/mL
- MIC90 (Staphylococcus aureus [17]): > 64 µg/mL
- MIC90 (Staphylococcus aureus [19]): > 64 µg/mL
- MIC90 (Staphylococcus aureus [20]): > 64 µg/mL
- MIC90 (Staphylococcus aureus [21]): > 64 µg/mL
- MIC90 (Staphylococcus aureus [22]): > 64 µg/mL
- MIC90 (Staphylococcus aureus [23]): > 64 µg/mL
- MIC90 (Staphylococcus aureus [24]): > 64 µg/mL
- MIC90 (Escherichia coli): 4 µg/mL (≈ 10.5 µM)
- MIC90 (Staphylococcus aureus [25]): > 64 µg/mL
- MIC90 (Staphylococcus aureus [26]): > 64 µg/mL
- MIC90 (Staphylococcus aureus [27]): > 64 µg/mL
- MIC90 (Staphylococcus aureus [29]): > 64 µg/mL
- MIC90 (Staphylococcus aureus [30]): > 64 µg/mL
- MIC90 (Staphylococcus aureus [32]): > 64 µg/mL
- MIC90 (Staphylococcus aureus [34]): > 64 µg/mL
- MIC90 (Staphylococcus aureus [35]): > 64 µg/mL
- MIC90 (Staphylococcus aureus [36]): > 192 µg/mL
- MIC90 (Staphylococcus aureus [37]): > 64 µg/mL
- MIC90 (Enterococcus faecalis [38]): 6 µg/mL (≈ 15.8 µM)
- MIC90 (Staphylococcus aureus [40]): > 64 µg/mL
- MIC90 (Enterococcus faecium [41]): 4 µg/mL (≈ 10.5 µM)
- MIC90 (Staphylococcus aureus [42]): > 192 µg/mL
- MIC90 (Staphylococcus aureus [43]): > 64 µg/mL
- MIC90 (Staphylococcus aureus [44]): > 64 µg/mL
